Drawing on US9006440B2, “Furopyridine derivatives” (Merck Patent GmbH, priority 2010, dated 2015), this text covers IC50 for 29 compounds.

For orientation: pIC50 means −log10 of the IC50, conventionally taken in molar units.

SMILES strings stand for the structures. pIC50: −log10 of the molar value. Where only a bound is given, the exact number is not on record here.

Common to all, as to type: biochemical
For one experiment, the target named is T1, Syk (Homo sapiens, UniProt P43405).
T1 construct: purchased BPS Bioscience, CA, USA
Put plainly: Syk enzyme assay (SYK flash plate assay / Caliper mobility shift). In short, it runs like this: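 Flashplate format: 2.5 nM SYK, 400 nM biotinylated peptide, 10 μM ATP with 33P-ATP, pH 7.5, 1 h at 30 °C; radioactivity read, staurosporine background. Caliper format: 90 min at 25 °C, mobility-shift read of substrate-to-product conversion; IC50 from dose-response curve.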

For the next experiment, the target named is T2, KDR (Homo sapiens, UniProt P35968).
T2 construct: purchased BPS Bioscience, CA, USA
Kind of experiment: KDR enzymatic assay (Caliper LifeSciences technology). Here is the method: (§1) The assays described here are performed on the Caliper Life Sciences LC3000 system This technology provides data on enzyme activity via measurement of the relative amounts of phosphorylated or unphosphorylated fluorescently labelled substrate peptide at the end of an enzymatic reaction. These different states of peptide are resolved by applying a potential difference across the sample. The presence of the charged phosphate group on the product (as opposed to the substrate) causes a different peptide mobility between the two peptides. This is visualized by excitation of the fluorescent label on the substrate and product peptides and represented as peaks within the analysis software.
(§2) In order to measure inhibitor activity of kinase inhibitors on this technology, a TTP Mosquito liquid handling instrument is used to place 0.25 ul of the appropriate concentration of inhibitor in 100% DMSO (for a dose response curve calculation) into each well of a 384-well plate. To this reaction components are added to a final volume of 25 ul. The table below indicates the sequences and concentrations for the assays described in this report. Standard components are 1 mM DTT (Sigma, D0632), 1 mM MgCl2 (Sigma, M1028), 100 mM HEPES pH 7.5 (Calbiochem, 391338), 0.015% Brij-35 (Sigma, B4184).
(§3) The reaction is incubated for 90 min at 25 C, and then stopped by the addition of 70 ul of Stop buffer (100 mM HEPES pH 7.5, 0.015% Brij-35, 10 mM EDTA (Sigma, E7889)).
(§4) The plate is read on a Caliper LC 3000 in an Off-Chip mobility shift assay format, on a 12-sipper chip. Unphosphorylated substrate and phosphorylated product peptide resolve as separate peaks allowing direct measurement of percentage of conversion of substrate to product. The percent conversion can be plotted against concentration of inhibitor to produce a sigmoidal dose response curve, from which an IC50 can be calculated using GeneData Condoseo or a similar product.

A further experiment concerns the target T3, SRC (Homo sapiens, UniProt P12931).
T3 construct: purchased Carna Bioscience, Kobe, Japan
Put plainly: Src enzymatic assay (Caliper LifeSciences technology). The method, then:
as §1, §2, §3, §4

T2 sequence (P35968 20-1356): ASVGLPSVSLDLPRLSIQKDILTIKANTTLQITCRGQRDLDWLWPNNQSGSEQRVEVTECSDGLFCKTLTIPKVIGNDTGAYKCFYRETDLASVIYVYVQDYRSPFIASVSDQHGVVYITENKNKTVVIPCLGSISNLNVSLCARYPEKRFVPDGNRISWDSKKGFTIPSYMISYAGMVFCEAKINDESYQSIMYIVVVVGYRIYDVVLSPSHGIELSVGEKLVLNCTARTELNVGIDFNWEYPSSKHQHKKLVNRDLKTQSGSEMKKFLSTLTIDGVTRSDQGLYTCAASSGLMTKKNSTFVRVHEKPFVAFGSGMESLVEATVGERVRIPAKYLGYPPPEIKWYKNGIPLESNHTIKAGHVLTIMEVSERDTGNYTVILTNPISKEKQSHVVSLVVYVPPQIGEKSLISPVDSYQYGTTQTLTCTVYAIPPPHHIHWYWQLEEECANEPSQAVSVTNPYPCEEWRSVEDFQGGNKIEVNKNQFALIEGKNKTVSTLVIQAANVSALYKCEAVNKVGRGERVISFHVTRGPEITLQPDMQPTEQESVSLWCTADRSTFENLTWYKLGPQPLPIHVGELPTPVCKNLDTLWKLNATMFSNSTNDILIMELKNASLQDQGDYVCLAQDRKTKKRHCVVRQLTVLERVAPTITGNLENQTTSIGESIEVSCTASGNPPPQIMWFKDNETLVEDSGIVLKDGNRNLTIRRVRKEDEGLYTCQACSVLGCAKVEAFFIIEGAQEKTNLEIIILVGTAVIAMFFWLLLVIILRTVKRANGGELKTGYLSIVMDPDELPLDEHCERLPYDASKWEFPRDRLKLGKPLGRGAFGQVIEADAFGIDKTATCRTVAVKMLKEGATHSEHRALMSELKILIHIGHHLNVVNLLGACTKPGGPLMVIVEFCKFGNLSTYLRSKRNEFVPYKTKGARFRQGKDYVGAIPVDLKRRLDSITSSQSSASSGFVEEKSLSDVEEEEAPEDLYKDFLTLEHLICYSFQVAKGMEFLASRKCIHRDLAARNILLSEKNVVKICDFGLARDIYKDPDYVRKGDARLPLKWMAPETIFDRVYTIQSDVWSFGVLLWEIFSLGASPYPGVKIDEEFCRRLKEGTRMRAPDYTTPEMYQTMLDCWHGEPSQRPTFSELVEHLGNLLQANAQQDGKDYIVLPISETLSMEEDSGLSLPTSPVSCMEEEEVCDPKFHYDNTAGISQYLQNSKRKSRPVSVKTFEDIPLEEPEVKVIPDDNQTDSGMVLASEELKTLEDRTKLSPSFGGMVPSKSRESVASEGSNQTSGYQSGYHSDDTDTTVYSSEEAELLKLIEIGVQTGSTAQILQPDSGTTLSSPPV
T3 sequence (P12931 whole entry): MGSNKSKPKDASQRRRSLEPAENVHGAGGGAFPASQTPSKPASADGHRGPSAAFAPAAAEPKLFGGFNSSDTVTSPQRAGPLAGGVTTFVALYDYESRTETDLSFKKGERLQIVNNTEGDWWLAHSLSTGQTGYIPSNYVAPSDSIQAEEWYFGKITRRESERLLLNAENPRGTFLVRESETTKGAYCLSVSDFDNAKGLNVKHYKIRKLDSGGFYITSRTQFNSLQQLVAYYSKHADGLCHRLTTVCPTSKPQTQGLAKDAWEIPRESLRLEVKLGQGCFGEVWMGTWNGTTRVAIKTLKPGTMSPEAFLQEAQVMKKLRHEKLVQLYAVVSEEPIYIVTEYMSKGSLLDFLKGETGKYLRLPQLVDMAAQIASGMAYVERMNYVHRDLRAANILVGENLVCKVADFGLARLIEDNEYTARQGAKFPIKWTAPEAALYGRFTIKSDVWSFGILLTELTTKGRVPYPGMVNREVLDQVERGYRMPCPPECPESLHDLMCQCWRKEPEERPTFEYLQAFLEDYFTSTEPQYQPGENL

On to `COc1cc(-c2cc3nccc(-c4cccc5[nH]ccc45)c3o2)cc(OC)c1OC` [Compound A20, 7-(1H-Indol-4-yl)-2-(3,4,5-trimethoxy-phenyl)-furo[3,2-b]pyridine], for which the pIC50 on Syk was greater than 6.52; against KDR, 4.30 to 5.52; at SRC it was 5.52 to 6.52.

As for `COc1cc(-c2cc3nccc(-c4cccc(OCCN)c4)c3o2)cc(OC)c1OC` [Compound A38, 2-{3-[2-(3,4,5-Trimethoxy-phenyl)-furo[3,2-b]pyridin-7-yl]-phenoxy}-ethylamine], the pIC50 is greater than 6.52 on Syk, 5.52 to 6.52 on KDR and 4.30 to 5.52 at SRC.

Turning to `COc1cc(-c2cc3nccc(-c4cccc(CN)c4)c3o2)cc(OC)c1OC` [Compound A51, 3-[2-(3,4,5-Trimethoxy-phenyl)-furo[3,2-b]pyridin-7-yl]-benzylamine], the values for the negative logarithm of the IC50 (pIC50) at Syk, at KDR and against SRC were greater than 6.52, 5.52 to 6.52 and 4.30 to 5.52, respectively.

On to `COc1cc(-c2cc3nccc(-c4cccc(CNC(C)=O)c4)c3o2)cc(OC)c1OC` [Compound A52, N-[[3-[2-(3,4,5-trimethoxyphenyl)furo[3,2-b]pyridin-7-yl]phenyl]methyl]-acetamide], for which the pIC50 at Syk is greater than 6.52; on KDR, 4.30 to 5.52; against SRC, 4.30 to 5.52.

In the case of `COc1cc(-c2cc3nccc(Nc4ccc(Sc5nccn5C)c(Cl)c4)c3o2)cc(OC)c1OC` [Compound B16, [3-Chloro-4-(1-methyl-1H-imidazol-2-ylsulfanyl)-phenyl]-[2-(3,4,5-trimethoxy-phenyl)-furo[3,2-b]pyridin-7-yl]-amine], the pIC50 on Syk, on KDR and against SRC was 4.30 to 5.52 throughout.

In the case of `Cc1c(Nc2ccnc3cc(-c4ccccc4)oc23)ccc2[nH]ccc12` [Compound B21, (4-Methyl-1H-indol-5-yl)-(2-phenyl-furo[3,2-b]pyridin-7-yl)-amine], the pIC50 at Syk was 5.52 to 6.52; on KDR it was 5.52 to 6.52; on SRC it was greater than 6.52.

With `COc1cc(-c2cc3nccc(-c4cc(OC)c(OC)c(OC)c4)c3o2)cc(OC)c1OC` [Compound B24, 2,7-Bis-(3,4,5-trimethoxy-phenyl)-furo[3,2-b]pyridine], the pIC50 on Syk is greater than 6.52; against KDR it was 4.30 to 5.52; on SRC it was 4.30 to 5.52.

In the case of `COc1ccc(-c2cc3nccc(-c4ccc(OC)c(OC)c4OC)c3o2)c(OC)c1OC` [Compound B40, 2,7-Bis-(2,3,4-trimethoxy-phenyl)-furo[3,2-b]pyridine], the pIC50 is 5.52 to 6.52 at Syk, 5.52 to 6.52 on KDR and 4.30 to 5.52 against SRC.

Consider `Cc1noc(C)c1-c1cc2nccc(-c3c(C)noc3C)c2o1` [Compound B41, 2,7-Bis-(3,5-dimethyl-isoxazol-4-yl)-furo[3,2-b]pyridine], for which the pIC50 on Syk, on KDR and on SRC was 4.30 to 5.52 throughout.

Regarding `Cc1ccc(-c2cc3nccc(Nc4ccc5[nH]ccc5c4C)c3o2)cc1` [Compound B46, (4-Methyl-1H-indol-5-yl)-(2-p-tolyl-furo[3,2-b]pyridin-7-yl)-amine], the pIC50 on Syk is 4.30 to 5.52; on KDR, 5.52 to 6.52; at SRC it was greater than 6.52.

`COc1ccc(-c2cc3nccc(Nc4ccc5[nH]ccc5c4C)c3o2)cc1` [Compound B47, [2-(4-Methoxy-phenyl)-furo[3,2-b]pyridin-7-yl]-(4-methyl-1H-indol-5-yl)-amine]: the results for the pIC50 on Syk, on KDR and at SRC were 4.30 to 5.52, 5.52 to 6.52 and 5.52 to 6.52, respectively.

Turning to `Cc1c(Nc2ccnc3cc(-c4ccc5c(c4)OCO5)oc23)ccc2[nH]ccc12` [Compound B48], the pIC50 was 5.52 to 6.52 at Syk, 5.52 to 6.52 on KDR and greater than 6.52 against SRC.

`COc1c(C)cc(-c2cc3nccc(Nc4ccc5[nH]ccc5c4C)c3o2)cc1C` [Compound B49, [2-(4-Methoxy-3,5-dimethyl-phenyl)-furo[3,2-b]pyridin-7-yl]-(4-methyl-1H-indol-5-yl)-amine]: the pIC50 on Syk was 5.52 to 6.52; on KDR, 5.52 to 6.52; against SRC it was greater than 6.52.

Turning to `COc1ccc(-c2cc3nccc(Nc4ccc5[nH]ccc5c4C)c3o2)cc1C` [Compound B50, [2-(4-Methoxy-3-methyl-phenyl)-furo[3,2-b]pyridin-7-yl]-(4-methyl-1H-indol-5-yl)-amine], the pIC50 at Syk, at KDR and on SRC was 5.52 to 6.52 in each case.

On to `Cc1cccc(-c2cc3nccc(Nc4ccc5[nH]ccc5c4C)c3o2)c1` [Compound B51, (4-Methyl-1H-indol-5-yl)-(2-m-tolyl-furo[3,2-b]pyridin-7-yl)-amine], for which the pIC50 on Syk was 4.30 to 5.52; at KDR, 5.52 to 6.52; against SRC, 5.52 to 6.52.

For the compound `Cc1cc(C)cc(-c2cc3nccc(Nc4ccc5[nH]ccc5c4C)c3o2)c1` [Compound B52, [2-(3,5-Dimethyl-phenyl)-furo[3,2-b]pyridin-7-yl]-(4-methyl-1H-indol-5-yl)-amine], the pIC50 on Syk, against KDR and against SRC was 5.52 to 6.52 each time.

In the case of `COc1ccc(-c2cc3nccc(Nc4ccc5[nH]ccc5c4C)c3o2)cc1OC` [Compound B53, [2-(3,4-Dimethoxy-phenyl)-furo[3,2-b]pyridin-7-yl]-(4-methyl-1H-indol-5-yl)-amine], the pIC50 on Syk, at KDR and on SRC was greater than 6.52 each time.

Consider `Cc1c(Nc2ccnc3cc(-c4ccc(N5CCOCC5)cc4)oc23)ccc2[nH]ccc12` [Compound B54], for which the pIC50 on Syk was 5.52 to 6.52; against KDR it was 5.52 to 6.52; against SRC, greater than 6.52.

As for `COc1ccc(-c2cc3nccc(Nc4ccc5[nH]ccc5c4C)c3o2)c(OC)c1OC` [Compound B56], the pIC50 at Syk is 5.52 to 6.52; against KDR, greater than 6.52; against SRC, greater than 6.52.

For the compound `COc1cccc(-c2cc3nccc(Nc4ccc5[nH]ccc5c4C)c3o2)c1` [Compound B57, [2-(3-Methoxy-phenyl)-furo[3,2-b]pyridin-7-yl]-(4-methyl-1H-indol-5-yl)-amine], the values for the pIC50 at Syk, at KDR and against SRC were 5.52 to 6.52, greater than 6.52 and greater than 6.52, respectively.

Regarding `Cc1c(Nc2ccnc3cc(-c4ccc(OCCCN(C)C)cc4)oc23)ccc2[nH]ccc12` [Compound B58, {2-[4-(3-Dimethylamino-propoxy)-phenyl]-furo[3,2-b]pyridin-7-yl}-(4-methyl-1H-indo-5-yl)-amine], the pIC50 on Syk was 5.52 to 6.52; at KDR, greater than 6.52; against SRC it was greater than 6.52.

On to `COc1cccc(-c2cc3nccc(Nc4ccc5[nH]ccc5c4C)c3o2)c1OC` [Compound B59, [2-(2,3-Dimethoxy-phenyl)-furo[3,2-b]pyridin-7-yl]-(4-methyl-1H-indol-5-yl)-amine], for which the pIC50 at Syk is 5.52 to 6.52; against KDR, greater than 6.52; against SRC, greater than 6.52.

As to `Cc1c(Nc2ccnc3cc(-c4ccc5c(c4)OCCO5)oc23)ccc2[nH]ccc12` [Compound B60, [2-(2,3-Dihydro-benzo[1,4]dioxin-6-yl)-furo[3,2-b]pyridin-7-yl]-(4-methyl-1H-indol-5-yl)-amine], the values for the negative logarithm of the IC50 (pIC50) on Syk, on KDR and at SRC were 5.52 to 6.52, 5.52 to 6.52 and greater than 6.52, respectively.

`Cc1noc(C)c1-c1cc2nccc(Nc3ccc4[nH]ccc4c3C)c2o1` [Compound B63, [2-(3,5-Dimethyl-isoxazol-4-yl)-furo[3,2-b]pyridin-7-yl]-(4-methyl-1H-indol-5-yl)-amine]: the negative-log IC50 (pIC50) on Syk was 5.52 to 6.52; at KDR it was greater than 6.52; against SRC it was greater than 6.52.

Turning to `COc1ccc(-c2cc3nccc(-c4ccccc4)c3o2)cc1NC(=O)[C@@H]1C[C@@H](O)CN1` [Compound C40], the pIC50 at Syk was 5.52 to 6.52; against KDR it was 5.52 to 6.52; on SRC, 4.30 to 5.52.

Consider `COc1cc(-c2cc3nccc(-c4c(F)cccc4OC)c3o2)cc(OC)c1OC` [Compound C119], for which the pIC50 is greater than 6.52 at Syk and 4.30 to 5.52 against SRC.

On to `COc1ccc(OC)c(-c2cc3nccc(-c4cnn(C)c4)c3o2)c1` [Compound C140], for which the values for the pIC50 at Syk and against SRC were greater than 6.52 and 5.52 to 6.52, respectively.

As to `COc1cc(-c2cc3nccc(-c4cc(O)cc(C(=O)NCCN)c4)c3o2)cc(OC)c1OC` [Compound C149], the negative logarithm of the IC50 (pIC50) on Syk is greater than 6.52; at SRC, 5.52 to 6.52.

In the case of `COc1cc(C(=O)N[C@@H]2CCCC[C@@H]2N)cc(-c2ccnc3cc(-c4cc(OC)c(OC)c(OC)c4)oc23)c1` [Compound C170], the pIC50 at Syk and against SRC was greater than 6.52 each time.
